These results are taken from patent publication US9566290B2, “Boron-containing small molecules” (Anacor Pharmaceuticals, Inc., priority 2005, dated 2017).

≈ marks a conversion by molar mass, not a printed value. Where “and” joins values, the source holds several entries; their conditions need not be identical. Equal values may be shown once.

One data set relates to T. rubrum. Briefly: Minimum fungicidal concentration (MFC). The class given is cell-based. Particulars: Trichophyton rubrum, lowest concentration that killed over 90%. The text has this: (§1) (C10) is a novel compound in development for use as a topical antifungal treatment. The purpose of this study was to determine the minimum inhibitory concentration (MIC) for (C10) against 19 test strains of fungi including: Aspergillus fumigatus (A. fumigatus), Candida Albicans (C. albicans, both fluconazole sensitive and resistant strains), Candida glabrata (C. glabrata), Candida krusei (C. krusei), Cryptococcus neoformans (C. neoformans), Candida parapsilosis (C. parapsilosis), Candida tropicalis (C. tropicalis), Epidermophyton floccosum (E. floccosum), Fusarium solani (F. solani), Malassezia furfur (M. furfur), Malassezia pachydermatis (M. pachydermatis), Malassezia sympodialis (M. sympodialis), Microsporum audouinii (M. audouinii), Microsporum canis (M. canis), Microsporum gypseum (M. gypseum), Trichophyton mentagrophytes (T. mentagrophytes), Trichophyton rubrum (T. rubrum), Trichophyton tonsurans (T. tonsurans). Fungal growth was evaluated after exposure to different concentrations of (C10). In addition, the MIC for (C10) against T. rubrum in the presence of 5% keratin powder and the minimum fungicidal concentration (MFC) for (C10) against T. rubrum and T. mentagrophytes were also determined. Ciclopirox and/or terbinafine and/or fluconazole and/or itraconazole were used as comparators and tested in a similar manner. These studies were conducted at NAEJA Pharmaceutical, Inc. […]

The test system of another data set is T. mentagrophytes. Briefly: Minimum fungicidal concentration (MFC). It counts as cell-based. Particulars: Trichophyton mentagrophytes, lowest concentration that killed over 90%.
Description: as §1

The test system of data set [1] is Trichophyton rubrum (T. rubrum). Nature of the data set: TurChub zone of inhibition assay through full thickness human nail. Particulars: 40 μL/cm^2 per day over five days. The class given is cell-based. As for the experimental part: The aim of the current study was to assess and compare the perungual absorption of C10 in a simple vehicle using MedPharm's TurChub® model (see http://www.medpharm.co.uk; specificaly http://www.medpharm.co.uk/downloads/Skin%20and%20nail%2dec%202003.pdf viewed Feb. 14, 2006). in a full scale experiment. Six replicates involving C10 were conducted and Formulations Y (8% ciclopirox w/w in commercial lacquer) and Z (Loceryl, 5% amorolfine w/v in commercial lacquer) were used as the reference formulations.
A dose of 40 μL/cm^2 of the test compound C10 in 50:50 propylene glycol:ethyl acetate was applied to a full thickness nail sample each day over a total duration of five days. Both the reference formulations were also applied at the same dose.
Placebo, test item C10 in vehicle and the reference formulations Y and Z were tested for their inhibition of Trichophyton rubrum (T. rubrum) growth after penetration through a full thickness human nail using a zone of inhibition measurement.

The nature of data set [2]: Nail penetration, 14-day dosing of radiolabeled compound (Hui protocol). It counts as in vitro ADME. The procedure:
Two nail penetration studies were performed based on the protocol in Hui et al., Journal of Pharmaceutical Sciences, 91(1): 189-195 (2002) (“Hui protocol”). The purpose of this study was to determine and compare the penetration and distribution of C10 in vehicle into the human nail plate in vitro relative to 8% ciclopirox w/w in commercial lacquer (Penlac®).
The study was composed of two groups. The compositions (weight %) of the dosage formulations are as follows: […]
Healthy human finger nail plates were collected from adult human cadavers and stored in a closed container at 0-4° C. Before the experiment, the nail plates were gently washed with normal saline to remove any contamination, then re-hydrated by placing them for three hours on a cloth wetted with normal saline. The nail samples were randomly selected into four groups.
Radioactivity of each group is approximately 0.19±0.01 and 0.22±0.03 μCi/10 μL solutions respectively, for ^14C—C10 (group A), and ^14C-ciclopirox (group C).
Surface washing was started in morning 10 min prior to next dosing, the surface of the nail was washed with cotton tips in a cycle, as follows:
A Teflon one-chamber diffusion cell (PermeGear, Inc., Hellertown, Pa.) was used to hold each nail. To approximate physiological conditions, a small cotton ball wetted with 0.1 mL normal saline was placed in the chamber to serve as a nail bed and provide moisture for the nail plate. Every 3 days, 0.1 mL normal saline was injected through the inlet into the chamber to keep the cotton ball wet. The nail plate was placed on a ledge inside the receptor (1.0 cm in diameter and 0.5 cm high). The ventral (inner) surface of the nail was placed face down and rested on the wet cotton ball. The cells were placed on a platform in a large glass holding tank filled with saturated sodium phosphate solution to keep the cells at a constant humidity of 40%.
After completion of the incubation phase, the nail plate was transferred from the diffusion cell to a clean copper nail holder for sampling process. The nail plate was inverted so that the ventral (nail bed) surface now faced up and the dorsal (outer) dosed surfaced faced down. The copper nail holder has an opening as it sits on top of the stage. When the sampling process initiated, the coarse adjustment was adjusted to move the position of the stage until the nail plate was just touching the tip of the cutter. Then the drill was turned on and the fine adjustment was turned to push the stage closer to the drill, removing a nail core sample. After the above process, approximate 0.40-0.50 mm in depth and 7.9 mm in diameter nail pulverized samples were harvested from the center of the ventral (nail bed) surface of the nail.
The powdered nail samples were collected into a glass scintillation vial and weighted. Aliquots of 5.0 mL Packard soluene-350 (Packard Instrument Company, Meriden, Conn.) was added to the scintillation vial to dissolve the powder. The upper part, the intermediate and dorsal layers of the center of the nail, including the area of application of the dose was cut in the same diameter as the sampled area and was then placed into a glass scintillation vial with 5.0 mL packard soluene-350. The rest of the nail was also placed in a glass scintillation vial with 5.0 mL packard soluene-350.
All radioactivity measurements were conducted with a Model 1500 Liquid Scintillation Counter (Packard Instrument Company, Downer Grove, Ill.). The counter was audited for accuracy using sealed samples of quenched and unquenched standards as detailed by the instrument manual. The ^14C counting efficiency is equal to or greater than 95%. All nail samples pre-treated with packard soluene-350 were incubated at 40° C. for 48 hours followed by the addition of 10 mL scintillation cocktail (HIONIC-FLUOR, Packard Instrument Company, Meriden, Conn.). […]

The compound `OB1OCc2cc(F)ccc21` [C10, 5-fluorobenzo[c][1,2]oxaborol-1(3H)-ol] showed an MFC against T. rubrum of 8 µg/mL (≈ 52.7 µM). In the data set with T. mentagrophytes, this compound yielded an MFC of 16 µg/mL (≈ 105 µM). Moreover, the “zone of inhibition, result in words” value in data set [1] (full thickness nail) was “superior results vs. the commercial reference formulations Y and Z”. Moreover, the Zones of inhibition in data set [1] (C10 10% w/v solution, second experiment (FIG. 7), six cells) is 74% and 86% and 100% and 82% and 84%. For the same compound, in data set [2], the “absolute amount of drug equivalent per cotton ball sample versus ciclopirox” value is recorded as “significantly higher”; the “amount of equivalent in ventral/intermediate center of the nail layer and cotton ball supporting bed versus group C (ciclopirox)” value is reported as “statistically higher”. For the same compound, in data set [2] (dorsal/intermediate center, ventral/intermediate center and remainder nail, 14-day treatment, p≦0.002), the “weight normalized concentration of drug equivalent in nail samples versus ciclopirox equivalent” value is given as “significantly higher”. In data set [2] (human, 14 day), the “Cumulative radioactivity recoveries of carbon-14” value was 88±9.21% of applied dose and the “difference of the two test chemicals in cotton ball supporting bed (C10 versus ciclopirox)” value is 250 times.

By MFC is commonly meant the smallest concentration meeting the test's criterion for killing the fungus. A high value points to less potent killing.
